# Patent publication US20150026842A1, “METHOD OF CONTROLLING SUDDEN DEATH SYNDROME WITH FLUTRIAFOL” (CHEMINOVA A/S, priority 2013, published 2015)
# Key:
# [1] = tested on: Sudden Death Syndrome (SDS); assay: Field trial: flutriafol applied pre-emergence to soybean for control of Sudden Death Syndrome; type: in vivo
# Description: The determination of the efficacy and selectivity of flutriafol fungicide when applied pre-emergence to soybean for control of Sudden Death Syndrome (SDS) was tested in the following example:
# The experiment was conducted in a Drummer silty clay loam soil with a pH of 6.8 and 3.0% organic matter. The experiment was set up as a randomized complete block with four replications. Plots were four 30 inch rows or a total of 10 ft. wide by 40 ft. long. Plot site was conventionally tilled and the trial was established on May 15, 2013, by planting NK S36-B6, a sudden death syndrome susceptible soybean variety. Seed was planted 1.5 inches deep and the seeding rate was 140,000 seeds/A. Topguard (a commercially available flutriafol SC formulation comprising 125 g/l) was applied at planting in-furrow in a 3-5 inch T-band perpendicular to the row with Teejet 4001E nozzles in a spray volume of 2 GPA. Topguard rates applied were 0.13, 0.195, 0.26 lb ai/acre (corresponding to 145.7, 218.6, 291.4 g ai/ha, respectively). These correspond to rates of 16, 24, or 32 fl oz of product/acre, respectively. One treatment of a 3-5 inch band of 32 fl oz/A Topguard was applied on May 21 as an ‘At Cracking’ application immediately prior to crop emergence. Trial was inoculated with SDS on sterile sorghum media that was applied in-furrow with a gandy box at planting at a rate of 25 ml per 20 ft of row. Data was collected from the two center rows from each plot.
# Drip irrigation was installed so the trial had no moisture stress throughout the season. On August 12, 19 and 30, soybean sudden death syndrome (SDS) incidence (0-100%) and severity (0-9) were evaluated. An SDS disease index (SDS DX) was created by multiplying the % Incidence by the % Severity and dividing by 9. Soybeans were harvested on October 10 and yields were calculated and adjusted to bu/A at 13% moisture.
# Fusarium virguliforme = assay: Mycelial colony growth of Fusarium virguliforme on flutriafol-amended PDA; type: cell-based
# Description: Inhibition of Fusarium virguliforme was tested in the following example:
# The flutriafol composition used in the example was TOPGUARD (125 g/L flutriafol SC). Each pathogen was grown out on fresh potato dextrose agar (commercial PDA), assessed and used to seed 2× autoclaved rice for inoculums development. At 7-10 days, two infested rice grains of each pathogen (2 per pathogen type) was placed at equal distances on flutriafol-amended PDA and incubated at 27-29° C. Mycelial colony diameter from each rice grain was measured at 1, 3, 5 and 7 days from grain placement. The included tables and data sets illustrate the differences in mycelia growth in response to various concentrations of the fungicide for one of the SDS pathogen types, Fusarium virguliforme.
# [2] = applied in a T-Band, August 12 and August 19
compound,measurement,setting,value
"OC(Cn1cncn1)(c1ccc(F)cc1)c1ccccc1F (racemic) [flutriafol, (RS)-2,4′-difluoro-α-(1H-1,2,4-triazol-1-ylmethyl)benzhydryl alcohol]",soybean yield,"[1]; T-band at 16, 24 or 32 oz/A, compared to the 'At Cracking' application and the untreated check",trend to higher soybean yield
same,Disease Index scores,[1]; [2],numerically lower
same,SDS Incidence,[1]; [2],numerically lower
same,Dia (mm) 1 day,Fusarium virguliforme; 0.01 ppm in PDA,0 mm
same,Dia (mm) 3 days,Fusarium virguliforme; 0.01 ppm in PDA,10.4 mm
same,Dia (mm) 5 days,Fusarium virguliforme; 0.01 ppm in PDA,15.6 mm
same,Dia (mm) 7 days,Fusarium virguliforme; 0.01 ppm in PDA,19.6 mm
same,Dia (mm) 1 day,Fusarium virguliforme; 0.1 ppm in PDA,0 mm
same,Dia (mm) 3 days,Fusarium virguliforme; 0.1 ppm in PDA,10.1 mm
same,Dia (mm) 5 days,Fusarium virguliforme; 0.1 ppm in PDA,16.4 mm
same,Dia (mm) 7 days,Fusarium virguliforme; 0.1 ppm in PDA,19.8 mm
same,Dia (mm) 1 day,Fusarium virguliforme; 1 ppm in PDA,0 mm
same,Dia (mm) 3 days,Fusarium virguliforme; 1 ppm in PDA,9.6 mm
same,Dia (mm) 5 days,Fusarium virguliforme; 1 ppm in PDA,15.3 mm
same,Dia (mm) 7 days,Fusarium virguliforme; 1 ppm in PDA,20 mm
same,Dia (mm) 1 day,Fusarium virguliforme; 10 ppm in PDA,0 mm
same,Dia (mm) 3 days,Fusarium virguliforme; 10 ppm in PDA,7.5 mm
same,Dia (mm) 5 days,Fusarium virguliforme; 10 ppm in PDA,13.9 mm
same,Dia (mm) 7 days,Fusarium virguliforme; 10 ppm in PDA,18.1 mm
same,Dia (mm) 1 day,Fusarium virguliforme; 100 ppm in PDA,0 mm
same,Dia (mm) 3 days,Fusarium virguliforme; 100 ppm in PDA,0 mm
same,Dia (mm) 5 days,Fusarium virguliforme; 100 ppm in PDA,0 mm
same,Dia (mm) 7 days,Fusarium virguliforme; 100 ppm in PDA,3 mm
same,Dia (mm) 1 day,"Fusarium virguliforme; 250 ppm in PDA, 27-29° C.",0 mm
same,Dia (mm) 3 days,Fusarium virguliforme; 250 ppm in PDA,0 mm
same,Dia (mm) 5 days,Fusarium virguliforme; 250 ppm in PDA,0 mm
same,Dia (mm) 7 days,Fusarium virguliforme; 250 ppm in PDA,0 mm
